In article PMC5894102 (Journal of medicinal chemistry, 2017):

How the values were obtained:
in vitro = conditions: human, A673 cells
CYP = conditions: cited from earlier work
[1] = cited from earlier work
[2] = biological target: human lactate dehydrogenase 5 (LDHA) (Homo sapiens, UniProt P00338); experiment: LDHA biochemical assay
LDHA = LDHA (Homo sapiens, UniProt P00338); type: cell-based
[3] = Mouse pharmacokinetic study; type: in vivo, CD1 mice; conditions: male, CD1, mouse, plasma, iv, 2 mg/kg
MiaPaCa-2 cells = conditions: 120 hours

Compound: COc1ncc(-c2ccc3c(Nc4cc(Oc5cc(F)cc(F)c5)cc(C(=O)O)c4)c(S(=O)(=O)NC4CC4)cnc3c2)c(OC)n1 [Analog 2]
- IC50 at 48 h (in vitro): > 57 µM

Compound: O=C(O)c1csc(-n2nc(-c3ccccc3)cc2C(F)(F)F)n1 [Analog 5]
- CYP inhibition (CYP): no appreciable CYP inhibition
- stability in human plasma [1]: stable in human plasma

Compound: O=C(O)c1csc(-n2nc(-c3ccccc3)cc2O)n1 [Analog 11]
- improvement in potency on replacing CF3 by OH [2]: > 100 fold

Compound: O=C(O)c1csc(-n2nc(-c3ccc(F)cc3)cc2O)n1 [Analog 16]
- IC50 [2]: 0.15 µM

Compound: NS(=O)(=O)c1ccc(Cc2cn(-c3nc(C(=O)O)cs3)nc2-c2ccc(F)c(F)c2)cc1 [Analog 42]
- IC50 at 48 h (in vitro): > 57 µM

Compound: NS(=O)(=O)c1ccc(Cc2cn(-c3nc(C(=O)O)cs3)nc2-c2cccc(-c3ccccc3)c2)cc1 [Analog 44]
- CETSA: Cellular LDHA stabilization Max stab. (norm'd) (LDHA; A673 cells, Western blot band intensity scaled to maximum response of 44): 100.0

Compound: NS(=O)(=O)c1ccc(Cc2c(-c3cccc(-c4ccccc4)c3)nn(-c3nc(C(=O)O)cs3)c2C2CC2)cc1 [Analog 61]
- half-life [3]: 51 min

Compound: NS(=O)(=O)c1ccc(Cc2c(-c3ccccc3)nn(-c3nc(C(=O)O)cs3)c2CC2CC2)cc1 [Analog 62]
- CETSA: Cellular LDHA stabilization AUC (norm'd) (LDHA): 100.00

Compound: NS(=O)(=O)c1ccc(Cc2c(-c3cccc(-c4ccccc4)c3)nn(-c3nc(C(=O)O)cs3)c2CC2CC2)cc1 [Analog 63]
- concentration with nearly complete arrest of cell growth (MiaPaCa-2 cells): 20 µM
- lowest concentration with effects on cellular proliferation (MiaPaCa-2 cells; dose-response): 250 nM
